The text below walks through data of US11331299B2, “Medicinal use of serrulatane diterpenes” (The University of Sydney, priority 2016, dated 2022).

As usually defined, the inhibition is the change of the read-out against control, counted positive when it falls. Usually IC50 stands for the midpoint of a concentration-inhibition curve.

Holding throughout (type): biochemical
The target of one experiment is T1, JMJD2A (h) (Homo sapiens, UniProt O75164).
T1 sequence (O75164 1-1064): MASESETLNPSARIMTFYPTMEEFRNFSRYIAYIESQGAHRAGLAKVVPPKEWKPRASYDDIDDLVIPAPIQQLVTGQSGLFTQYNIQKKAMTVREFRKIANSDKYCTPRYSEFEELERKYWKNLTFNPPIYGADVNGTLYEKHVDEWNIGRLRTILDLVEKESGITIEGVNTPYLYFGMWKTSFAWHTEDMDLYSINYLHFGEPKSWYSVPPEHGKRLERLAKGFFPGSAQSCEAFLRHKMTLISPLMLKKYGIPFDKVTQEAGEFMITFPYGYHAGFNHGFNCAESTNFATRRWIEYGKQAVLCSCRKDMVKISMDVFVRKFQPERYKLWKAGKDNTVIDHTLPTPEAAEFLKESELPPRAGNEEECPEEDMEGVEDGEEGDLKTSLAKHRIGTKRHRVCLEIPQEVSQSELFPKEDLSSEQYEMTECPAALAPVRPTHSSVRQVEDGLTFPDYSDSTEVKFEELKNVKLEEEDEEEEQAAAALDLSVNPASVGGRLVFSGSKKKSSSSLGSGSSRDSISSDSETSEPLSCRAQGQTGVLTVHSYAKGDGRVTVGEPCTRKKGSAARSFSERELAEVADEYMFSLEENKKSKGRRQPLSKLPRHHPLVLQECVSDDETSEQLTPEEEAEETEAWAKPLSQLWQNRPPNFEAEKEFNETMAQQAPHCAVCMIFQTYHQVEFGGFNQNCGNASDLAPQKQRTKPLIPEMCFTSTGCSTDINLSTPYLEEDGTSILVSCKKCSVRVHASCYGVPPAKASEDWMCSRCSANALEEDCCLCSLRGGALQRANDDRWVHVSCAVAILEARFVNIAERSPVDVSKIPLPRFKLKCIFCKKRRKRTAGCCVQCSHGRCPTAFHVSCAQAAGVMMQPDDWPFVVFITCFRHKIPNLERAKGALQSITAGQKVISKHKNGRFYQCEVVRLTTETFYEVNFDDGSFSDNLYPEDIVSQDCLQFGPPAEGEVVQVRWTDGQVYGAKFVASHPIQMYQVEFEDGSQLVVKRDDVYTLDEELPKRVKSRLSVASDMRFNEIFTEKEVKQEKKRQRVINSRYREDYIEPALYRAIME
The experiment in a line: Epigenetic enzyme assay, Demethylases (KDMs). The settings on record: read-out: % Inhibition of Control Values.

The next experiment concerns the target T2, SETD7 (h) (Homo sapiens, UniProt Q8WTS6).
T2 sequence (Q8WTS6 1-366): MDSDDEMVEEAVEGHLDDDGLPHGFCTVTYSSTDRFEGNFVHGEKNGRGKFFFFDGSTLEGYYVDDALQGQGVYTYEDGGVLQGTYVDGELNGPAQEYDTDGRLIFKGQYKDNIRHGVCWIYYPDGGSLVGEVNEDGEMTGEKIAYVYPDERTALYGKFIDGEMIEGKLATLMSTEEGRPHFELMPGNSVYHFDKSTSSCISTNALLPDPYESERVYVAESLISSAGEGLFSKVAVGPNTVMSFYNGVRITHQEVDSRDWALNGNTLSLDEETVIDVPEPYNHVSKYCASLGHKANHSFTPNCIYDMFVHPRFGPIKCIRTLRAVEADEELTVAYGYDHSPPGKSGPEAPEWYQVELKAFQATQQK
The experiment in a line: Epigenetic enzyme assay, Methyltransferases (MTs). The settings on record: for inhibition at 10 µM: read-out: % Inhibition of Control Values.

For experiment [1], the target named is T3, Haspin (h) (substrate histone H3 full length) (Homo sapiens, UniProt Q8TF76).
T3 sequence (Q8TF76 1-798): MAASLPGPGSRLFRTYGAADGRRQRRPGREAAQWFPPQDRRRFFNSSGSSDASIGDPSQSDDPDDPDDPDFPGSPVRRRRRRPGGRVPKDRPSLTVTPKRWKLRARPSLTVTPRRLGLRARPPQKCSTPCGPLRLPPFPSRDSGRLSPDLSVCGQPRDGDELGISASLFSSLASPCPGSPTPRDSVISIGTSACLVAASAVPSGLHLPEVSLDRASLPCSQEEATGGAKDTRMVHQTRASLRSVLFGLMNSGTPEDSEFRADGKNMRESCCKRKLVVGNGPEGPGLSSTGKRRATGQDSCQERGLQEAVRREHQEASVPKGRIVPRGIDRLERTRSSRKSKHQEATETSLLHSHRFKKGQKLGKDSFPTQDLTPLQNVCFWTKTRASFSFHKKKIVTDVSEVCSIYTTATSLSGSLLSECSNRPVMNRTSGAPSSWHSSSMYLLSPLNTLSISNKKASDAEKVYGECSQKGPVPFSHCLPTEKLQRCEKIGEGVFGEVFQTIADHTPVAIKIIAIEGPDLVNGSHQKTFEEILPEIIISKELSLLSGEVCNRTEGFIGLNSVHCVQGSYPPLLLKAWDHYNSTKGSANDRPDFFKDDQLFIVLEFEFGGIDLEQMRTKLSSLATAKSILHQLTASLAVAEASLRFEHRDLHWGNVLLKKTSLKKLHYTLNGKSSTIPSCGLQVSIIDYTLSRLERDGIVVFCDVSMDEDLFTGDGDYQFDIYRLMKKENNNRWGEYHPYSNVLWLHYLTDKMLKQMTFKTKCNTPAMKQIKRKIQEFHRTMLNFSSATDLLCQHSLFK
The experiment can be described thus: Epigenetic enzyme assay, Kinases. The settings on record: read-out: % Inhibition of Control Values.

Another experiment addresses T4, HMG-CoA Reductase (Homo sapiens, UniProt P04035).
T4 construct: host or cells: E. coli
T4 sequence (P04035 426-888 limits assumed): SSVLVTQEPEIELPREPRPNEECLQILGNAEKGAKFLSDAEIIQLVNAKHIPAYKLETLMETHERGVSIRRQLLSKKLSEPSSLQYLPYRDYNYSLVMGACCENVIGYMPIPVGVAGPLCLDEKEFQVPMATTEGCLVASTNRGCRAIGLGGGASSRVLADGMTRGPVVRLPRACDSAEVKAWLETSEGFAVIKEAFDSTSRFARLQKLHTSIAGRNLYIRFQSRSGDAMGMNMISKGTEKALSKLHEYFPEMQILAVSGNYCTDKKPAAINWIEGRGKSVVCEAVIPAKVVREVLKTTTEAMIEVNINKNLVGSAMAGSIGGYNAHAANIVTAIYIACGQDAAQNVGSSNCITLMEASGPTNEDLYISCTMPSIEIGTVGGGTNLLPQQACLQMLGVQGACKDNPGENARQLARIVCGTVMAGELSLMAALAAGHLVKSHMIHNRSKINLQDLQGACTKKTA
The experiment in a line: HMG-CoA Reductase. The settings on record: assay year 2015, read-out: % Control Response. The protocol: The in vitro pharmacological studies were conducted by Eurofins PanLab (Taiwan) using the parameters shown in Table 13 with respect to appropriate literature references.

As to `CC(C)=CCC[C@@H]1COc2c(C)cc(O)c3c2[C@H]1CC[C@H]3C` [Compound 3, 5,18-epoxy-8-hydroxyserrulat-14-ene], the inhibition at 10 µM at JMJD2A (h) was 12%; on SETD7 (h), -2%; in experiment [1], 7%. Moreover, at HMG-CoA Reductase, the remaining activity at 10 µM is 24%.

Consider `CC(C)=CCC[C@@H]1C(O)Oc2c(C)cc(O)c3c2[C@H]1CC[C@H]3C` (stereo partly shown) [Compound 2, 5,18-epoxyserrulat-14-en-8,18-diol], for which the inhibition at 10 µM was -10% on JMJD2A (h), 16% at SETD7 (h) and 11% in experiment [1]. Also, the remaining activity at 10 µM on HMG-CoA Reductase came out at 27%.

For the molecule `Nc1ncnc2c1ncn2[C@@H]1O[C@H](CSCC[C@H](N)C(=O)O)[C@@H](O)[C@H]1O` [SAH], at SETD7 (h) (read-out: Reference IC50), the IC50 is 24 µM.

Regarding `CC(C)=CCC[C@H](CO)[C@@H]1CC[C@@H](C)c2c1cc(C)c(O)c2O` [Compound 1, 7,8,18-trihydroxyserrulat-14-ene], the inhibition at 10 µM was found to be 29% at JMJD2A (h), 12% at SETD7 (h) and 2% in experiment [1]. In addition, the remaining activity at 10 µM at HMG-CoA Reductase was 29%.
